# Data taken from publication PMC8277129, “Bioconcentration of Several Series of Cationic Surfactants in Rainbow Trout” (Environmental Science & Technology, 2021).
# Several values for one entry are separate records, joined by “and”; a condition that tells them apart may be missing. Identical values can stand only once. Like-named read-outs stand apart in the source and are kept apart here. Marks after values point to notes of the source that are not given here.
# Legend:
# [1] = set-up: method as in REACH dossier; conditions: aqueous; ref REACH dossier; cited from earlier work
# [2] = set-up: method as in Perrin 1965, SRC, REACH, Perrin 1972, Hall 1957; conditions: ref Perrin 1965, SRC, REACH, Perrin 1972, Hall 1957, cited from earlier work; for pKa, experimental reference data: 25 °C; for pKa used (selected value): selected per amine type, weighted from simulated and experimental analogue data
# [3] = test system: juvenile rainbow trout (Oncorhynchus mykiss); assay: Bioconcentration (BCF) experiment based on OECD 305, aqueous exposure to surfactant mixtures; assay type: in vivo; conditions: for BCF (kU/kT) / uptake rate constant (kU) / measured total elimination rate constant (kT): whole fish; for uptake rate constant (kU): 14 d exposure, 28 d depuration; for factor by which BCF is lower for the QAC than for the tertiary amine with the same chain length: pH 7.6, Q10 vs T10, Q14 vs T14
# Description: (§1) Juvenile rainbow trout were purchased from EM lax in Västervik, Sweden, and held in the aquaria facility for one month prior to starting the experiment on August 28, 2018. Ethical approval for the experiments was obtained from Stockholm’s djurförsöksetiska nämnd (decision 9967–2017). The experiment was conducted in six 350 L fiberglass aquaria with a water renewal rate of 1.5 L min^–1 corresponding to a turnover time of […]. The water temperature and the air temperature in the aquaria room were 10 °C. The lighting was dim and programmed on a 12 h light/12 h dark cycle.
# (§2) Three BCF experiments were conducted, one each for MIX1 and MIX2 at pH ∼7.6 (denoted MIX1 and MIX2 in the following), and one for MIX1 at pH ∼6.2 (MIX1pH). Each experiment consisted of a 14 d exposure phase and a 28 d depuration phase. There were also two control aquaria where unexposed fish were kept, one at pH 7.6 and one at pH 6.2. For the pH 6.2 aquaria, a 20% v:v formic acid solution was pumped into a premixing basin where it was mixed with the inflowing water before entering the aquarium. pH sensors monitored pH in the premixing basin and the aquarium. The pH for the MIX1 and MIX2 experiments was governed by the pH of the water supply. Water samples were collected at 8 time points during each experiment for the determination of pH and alkalinity. Water samples were collected daily during the exposure phase for determination of total organic carbon (TOC), which was measured with NDIR detection after acidification, purging and high-temperature catalytic combustion (Shimadzu TOC-L).
# (§3) For the exposure phase, a methanol solution of the test chemical mixture was infused continuously at 4.0 μL min^–1 into the water inflow of the aquarium using a syringe pump. The target concentrations of the chemicals in water ranged from 2.5 to 100 μg L^–1 (Table 1). They were selected to be as low as possible to minimize the risk of toxic effects while still being high enough to enable collection of high-quality data, building on the results of the tissue distribution experiment.[32] The syringe pump was started in an aquarium containing no fish. After 16 h to allow the concentrations to stabilize, ∼80 rainbow trout were transferred to the aquarium. Over the following 14 d water samples were collected and fish were sacrificed according to the schedule in Table S5. The remaining fish were then transferred to a second aquarium that received water without chemical addition. Over the following 28 d further water samples were collected and fish were sacrificed (Table S5).
# (§4) At each fish sampling, 4–6 fish were sacrificed. Fish were also sampled periodically from the control aquaria. Following stunning and severance of the spinal cord, the fish were placed in a polyethylene bag, weighed, and immediately frozen at −20 °C. The median fish weight at sacrifice was 10.94 g, with a 25th and 75th percentile of 8.43 and 13.58 g, respectively.
# (§5) Three fish from each time point were prioritized for analysis based on proximity to the median fish weight. Each fish was semithawed, cut into 3–4 pieces, and homogenized with an Ultra-Turrax device. 150 mg of the homogenate was transferred to a preweighed 13 mL polypropylene tube, centrifuged to a pellet, and weighed. 50 μL of methanol was added and the prepared aliquot was frozen. For extraction internal standard solution (isotope labeled standards of Q10 (D21), Q14 (D29), and P16 (D33)), 3 mL of methanol and 3 steel balls (3.2 mm diameter) were added to the prepared aliquot. This mixture was mixed in a bullet blender for 1 min, and then placed in an ultrasound bath at 50 °C for 60 min. Following centrifugation, the supernatant was decanted and the extraction was repeated. The extracts were combined and a portion corresponding to 25–50 mg homogenate was cleaned up on a weak cationic exchange SPE column (WCX, 60 mg) as described elsewhere.[32] […]
# [4] = ref Timmer and Droge (2017); cited from earlier work
# gills of rainbow trout = assay: Mechanistic one-box mass balance model of gill uptake and elimination; conditions: for predicted gill elimination rate constant eq 1 (k2): from measured kU and modeled αW, αB, DFW
# Excerpt: To gain more mechanistic insight into the results, we formulated a simple one-box mass balance model of chemical bioconcentration in fish that considered diffusive uptake and elimination across the gills as well as biotransformation.[33] The flow of water across the gills and the flow of blood through the gills were modeled as perfusion limited resistances that constrain gill uptake and elimination. […] Consequently, these resistances are unknowns. Ion trapping effects caused by differences in pH between water at the gill surface and blood in the gills are considered, drawing on previous work on the uptake and elimination of ionizable organic chemicals across the gills of rainbow trout.[22],[23] Partitioning of the chemical from the dissolved phase into blood and into whole fish was calculated as the product of the membrane lipid–water distribution ratio (DMLW,T, including partitioning of both the neutral and the charged forms) and the fraction of membrane lipid in blood and whole fish. A detailed description of the model is provided in the SI (Text S3).
# The contribution of the water perfusion and blood perfusion resistances were compared with the overall resistance for transport across the gills from water to blood (RW→B), which was calculated from the measured kU according to equation S4.3. […] For all of the other chemicals the blood resistance is insignificant compared to the overall resistance.
# The rate constant for elimination across the gills, k2, can be defined as follows: [drawing 1] 1 where αB and αW are the neutral fractions of the chemical in the blood and in the water at the gill surface, respectively, and DFW is the fish-water distribution ratio of the chemical at the pH of blood (8.1) (see Text S3). Using the measured kU and the values of αW, αB, and DFW estimated for the model, k2 was calculated (Table 2).
# [5] = Bioconcentration (BCF) experiment based on OECD 305, aqueous exposure to surfactant mixtures; assay type: in vivo, Oncorhynchus mykiss; conditions: whole fish, read-out: measured total elimination rate constant (kT) (converted)
# Description: as §1, §2, §3, §4, §5
smiles,measurement,setting,value
"CCCCCCCCCC[N+](C)(C)CCCCCCCCCC.CCCCCCCCCC[N+](C)(C)CCCCCCCCCC.O=C([O-])CCCCC(=O)[O-] [1-Decanaminium,N-decyl-N,N-dimethyl-, hexanedioate(2:1)]",SURFACE TENSION,[1],32.3 mN/m
CCCCCCCC/C=C/CCCCCCCCN(CCO)CCO [2-[(2-hydroxyethyl)[(9E)-octadec-9-en-1-yl]amino]ethan-1-ol],SURFACE TENSION,[1],27 mN/m
"CCCCCCCCCCCCCC[N+](C)(C)CCCCCCCCCCCCCC.[Cl-] [N,N-dimethyl-N-tetradecyltetradecan-1-aminium chloride]",SURFACE TENSION,[1],28 mN/m
"CCCCN(C)C [N,N-dimethylbutylamine, reference compound]","pKa, experimental reference data",[2],10.02
"CCCCCCCCCCCCCCCCN(C)C [N,N-dimethylhexadecan-1-amine]",SURFACE TENSION,[1],30.5 mN/m
"CCCN(C)C [N,N-dimethylpropylamine, reference compound]","pKa, experimental reference data",[2],9.99
CCCCNCCCC [N-butylbutan-1-amine],SURFACE TENSION,[1],50.6 mN/m
"CCCCNC [N-methylbutylamine, reference compound]","pKa, experimental reference data",[2],10.9
"CCCCCCCCCN [P9, Nonylamine]",factor by which BCF is lower at pH 6.2 than at pH 7.6,[3]; MIX1 vs MIX1pH,22
same,BCF (kU/kT),[3]; pH 6.2 (MIX1pH),0.1 ^b L kg^–1
same,BCF (kU/kT),"[3]; pH 7.6 (MIX1, MIX2)",2.2 L kg^–1
same,pKa used (selected value),[2],C9NH2 (10.6)
same,"Log DMLW,C (membrane-water partition coefficient of the charged form)",[4],3.72
"CCCCCCCCCCCCN [P12, Dodecylamine]",factor by which k2 was less than kT,gills of rainbow trout,~10
same,pH dependency of k2 (factor between pH 7.6 and pH 6.2),gills of rainbow trout; MIX1 vs MIX1pH,2.5
same,Uptake resistance,"gills of rainbow trout; lower pH (6.2), value printed in Figure 3",744 h m^-1
same,k2/kT,gills of rainbow trout; pH 6.2 (MIX1pH),0.04
same,predicted gill elimination rate constant eq 1 (k2),gills of rainbow trout; pH 6.2 (MIX1pH),0.0022 h^–1
same,k2/kT,"gills of rainbow trout; pH 7.6 (MIX1, MIX2)",0.11
same,predicted gill elimination rate constant eq 1 (k2),"gills of rainbow trout; pH 7.6 (MIX1, MIX2)",0.0009 h^–1
same,factor by which BCF is lower at pH 6.2 than at pH 7.6,[3]; MIX1 vs MIX1pH,34
same,uptake rate constant (kU),[3]; pH 6.2 (MIX1pH),0.36 L kg^–1 h^–1
same,BCF (kU/kT),[3]; pH 6.2 (MIX1pH),7.1 L kg^–1
same,uptake rate constant (kU),"[3]; pH 7.6 (MIX1, MIX2), 10 °C",2.0 L kg^–1 h^–1
same,BCF (kU/kT),"[3]; pH 7.6 (MIX1, MIX2)",250 L kg^–1
same,k el,[5]; pH 6.2 (MIX1pH),1.42e-05 s⁻¹
same,k el,"[5]; pH 7.6 (MIX1, MIX2)",2.25e-06 s⁻¹
same,"Log DMLW,C (membrane-water partition coefficient of the charged form)",[4],5.58
"CCCCCCCCCC[N+](C)(C)C [Q10, N,N,N-trimethyl-1-decylammonium]",BCF (kU/kT),"[3]; pH 7.6 (MIX1, MIX2)",<0.2 ^c L kg^–1
same,factor by which BCF is lower for the QAC than for the tertiary amine with the same chain length,[3],> 670
same,"Log DMLW,C (membrane-water partition coefficient of the charged form)",[4],3.34
"CCCCCCCCCCCCCC[N+](C)(C)C [Q14, N,N,N-trimethyl-1-tetradecylammonium]",initial rapid sorption as share of the cumulative uptake over 14 d,[3]; 14 d exposure phase,< 5%
same,factor by which BCF is lower at pH 6.2 than at pH 7.6,[3]; MIX1 vs MIX1pH,no influence of pH on BCF
same,factor by which kU is lower at pH 6.2 than at pH 7.6,[3]; MIX1 vs MIX1pH,the same
same,uptake rate constant (kU),[3]; pH 6.2 (MIX1pH),0.121 L kg^–1 h^–1
same,BCF (kU/kT),[3]; pH 6.2 (MIX1pH),55 L kg^–1
same,measured total elimination rate constant (kT),[3]; pH 6.2 (MIX1pH),0.0022 h^–1
same,uptake rate constant (kU),"[3]; pH 7.6 (MIX1, MIX2), 10 °C",0.104 L kg^–1 h^–1
same,BCF (kU/kT),"[3]; pH 7.6 (MIX1, MIX2)",51 L kg^–1
same,measured total elimination rate constant (kT),"[3]; pH 7.6 (MIX1, MIX2)",0.0020 h^–1
same,factor by which BCF is lower for the QAC than for the tertiary amine with the same chain length,[3],160
same,"Log DMLW,C (membrane-water partition coefficient of the charged form)",[4],5.46
"CCCCCCCCCCN(C)C [T10, N,N-dimethyldecylamine]",k2/kT,gills of rainbow trout; pH 6.2 (MIX1pH),4.1
same,predicted gill elimination rate constant eq 1 (k2),gills of rainbow trout; pH 6.2 (MIX1pH),0.53 h^–1
same,factor by which k2 exceeded kT,gills of rainbow trout; pH 6.2 experiment,4
same,factor by which k2 exceeded kT,gills of rainbow trout; pH 7.6,~5
same,k2/kT,"gills of rainbow trout; pH 7.6 (MIX1, MIX2)",5.0
same,predicted gill elimination rate constant eq 1 (k2),"gills of rainbow trout; pH 7.6 (MIX1, MIX2)",0.37 h^–1
same,factor by which BCF is lower at pH 6.2 than at pH 7.6,[3]; MIX1 vs MIX1pH,17
same,factor by which kT is greater at pH 6.2 than at pH 7.6,[3]; MIX1 vs MIX1pH,1.7
same,factor by which kU is lower at pH 6.2 than at pH 7.6,[3]; MIX1 vs MIX1pH,10
same,uptake rate constant (kU),[3]; pH 6.2 (MIX1pH),1.02 L kg^–1 h^–1
same,BCF (kU/kT),[3]; pH 6.2 (MIX1pH),7.9 L kg^–1
same,measured total elimination rate constant (kT),[3]; pH 6.2 (MIX1pH),0.129 h^–1
same,uptake rate constant (kU),"[3]; pH 7.6 (MIX1, MIX2), 10 °C",9.9 L kg^–1 h^–1
same,BCF (kU/kT),"[3]; pH 7.6 (MIX1, MIX2)",134 L kg^–1
same,measured total elimination rate constant (kT),"[3]; pH 7.6 (MIX1, MIX2)",0.074 h^–1
same,pKa used (selected value),[2],C10N(CH3)2 (10.0)
same,"Log DMLW,C (membrane-water partition coefficient of the charged form)",[4],3.65
CCCCCCCCCCCCCC[N+](C)(C)Cc1ccccc1.[Cl-] [benzyldimethyltetradecylazanium chloride],SURFACE TENSION,[1],34.5 mN/m
CCCCCCCCCCCCCCCCCCN(C)C [dimethyl(octadecyl)amine],SURFACE TENSION,[1],32.2 mN/m
CCCCCCCCCCCCN [dodecan-1-amine],SURFACE TENSION,[1],23.1 mN/m
"CCCCCCN [hexylamine, reference compound]","pKa, experimental reference data",[2],10.64
CCCCCCCCCCCCCCCCCCN [octadecan-1-amine],SURFACE TENSION,[1],23.9 mN/m
CCCCCCCCN [octan-1-amine],SURFACE TENSION,[1],44.2 mN/m
"CCCCCCCCN [octylamine, reference compound]","pKa, experimental reference data",[2],10.7 and 10.6
